Legend:
PDGFRalpha(V561D) = molecular target: T1, PDGFRalpha(V561D) (Homo sapiens, UniProt P16234, V561D); test: PDGFRalpha(V561D) assay; format: biochemical; settings: recombinant human PDGFRalpha aa 550-end, 200 μM ATP, 1.4E-06 means 1.4×10^−6, read-out: Inhibition (IC50) of PDGFRα (V561D)
T1 construct: recombinant human PDGFRalpha, amino acids 550end containing the V561 D mutation; 6His (N)
Summary of the method: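 Radiometric filter-binding assay: substrate phosphorylation by recombinant N-His-tagged human PDGFRα 550-end V561D was quenched with 3% phosphoric acid after 40 min at room temperature, then counted.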

c-Kit(V654A) = molecular target: T2, c-Kit(V654A) (Homo sapiens, UniProt P10721, V654A); test: c-Kit(V654A) assay; format: biochemical; settings: recombinant human c-Kit aa 544-end, 200 μM ATP, 1.4E-06 means 1.4×10^−6, read-out: Inhibition (IC50) of c-KIT (V654A)
T2 construct: amino acids 544-end containing the V654A mutation; GST (N)
T2 sequence (P10721 544-976 V654A): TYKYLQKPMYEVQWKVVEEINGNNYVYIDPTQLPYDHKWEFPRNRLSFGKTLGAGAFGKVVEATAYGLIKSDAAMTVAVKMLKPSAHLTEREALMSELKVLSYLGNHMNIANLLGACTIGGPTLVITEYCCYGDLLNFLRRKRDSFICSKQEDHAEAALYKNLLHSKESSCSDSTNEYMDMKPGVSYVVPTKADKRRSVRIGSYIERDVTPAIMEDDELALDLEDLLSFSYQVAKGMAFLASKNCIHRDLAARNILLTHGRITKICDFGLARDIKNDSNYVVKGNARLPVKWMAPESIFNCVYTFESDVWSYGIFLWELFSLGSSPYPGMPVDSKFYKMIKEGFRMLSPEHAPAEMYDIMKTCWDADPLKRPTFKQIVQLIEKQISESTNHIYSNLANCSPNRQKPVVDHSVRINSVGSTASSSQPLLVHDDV
Summary of the method: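 Radiometric filter-binding read-out: substrate 33P incorporation counted by scintillation after P30 filtermat washes in 75 mM phosphoric acid and methanol. Enzyme: N-GST recombinant human c-Kit aa 544-end carrying V654A.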

T1 sequence (P16234 550-1089 V561D): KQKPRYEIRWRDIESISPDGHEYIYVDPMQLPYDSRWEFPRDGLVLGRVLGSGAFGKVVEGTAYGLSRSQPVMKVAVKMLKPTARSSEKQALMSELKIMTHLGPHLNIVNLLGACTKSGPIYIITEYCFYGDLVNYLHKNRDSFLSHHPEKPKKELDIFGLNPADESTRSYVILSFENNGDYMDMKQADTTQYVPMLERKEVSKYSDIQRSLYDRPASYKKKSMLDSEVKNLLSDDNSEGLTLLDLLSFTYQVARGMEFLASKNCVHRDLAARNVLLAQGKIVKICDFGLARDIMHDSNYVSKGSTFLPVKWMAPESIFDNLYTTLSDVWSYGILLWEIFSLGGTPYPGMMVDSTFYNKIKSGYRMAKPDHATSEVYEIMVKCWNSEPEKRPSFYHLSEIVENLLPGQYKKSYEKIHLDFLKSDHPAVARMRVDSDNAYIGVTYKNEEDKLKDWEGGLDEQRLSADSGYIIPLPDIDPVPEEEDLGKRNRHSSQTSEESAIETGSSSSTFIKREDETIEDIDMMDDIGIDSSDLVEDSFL

Compound: CN1CCC(CCOc2ccc(-n3cc(-c4cc5cc(F)ccc5[nH]c4=O)nn3)cc2)CC1 [A163, 6-fluoro-3-(1-{4-[2-(1-methyl-piperidin-4-yl)-ethoxy]-phenyl}-1H-[1,2,3]triazol-4-yl)-1H-quinolin-2-one]
- IC50 (PDGFRalpha(V561D)): 45 nM
- IC50 (c-Kit(V654A)): 9.9 nM

Compound: CN1CCC(C(=O)c2ccc(-n3cc(-c4cc5cc(F)c(F)cc5[nH]c4=O)nn3)cc2)CC1 [A164, 6,7-difluoro-3-{1-[4-(1-methyl-piperidine-4-carbonyl)-phenyl]-1H-[1,2,3]triazol-4-yl}-1H-quinolin-2-one]
- IC50 (PDGFRalpha(V561D)): 11 nM
- IC50 (c-Kit(V654A)): 8.4 nM

Compound: CN1CCN(C(=O)COc2ccc(-n3cc(-c4cc5cc(F)ccc5[nH]c4=O)nn3)cc2)CC1 [A165, 6-fluoro-3-(1-{4-[2-(4-methyl-piperazin-1-yl)-2-oxo-ethoxy]-phenyl}-1H-[1,2,3]triazol-4-yl)-1H-quinolin-2-one]
- IC50 (PDGFRalpha(V561D)): 33 nM
- IC50 (c-Kit(V654A)): 30 nM

Compound: CN1CCC(CCOc2ccc(-n3cc(-c4cc5cc(F)c(F)cc5[nH]c4=O)nn3)cc2)CC1 [A166, 6,7-difluoro-3-(1-{4-[2-(1-methyl-piperidin-4-yl)-ethoxy]-phenyl}-1H-[1,2,3]triazol-4-yl)-1H-quinolin-2-one]
- IC50 (PDGFRalpha(V561D)): 43 nM
- IC50 (c-Kit(V654A)): 8 nM

Compound: CN1CCN(C(=O)COc2ccc(-n3cc(-c4cc5cc(F)c(F)cc5[nH]c4=O)nn3)cc2)CC1 [A167, 6,7-difluoro-3-(1-{4-[2-(4-methyl-piperazin-1-yl)-2-oxo-ethoxy]-phenyl}-1H-[1,2,3]triazol-4-yl)-1H-quinolin-2-one]
- IC50 (PDGFRalpha(V561D)): 21 nM
- IC50 (c-Kit(V654A)): 18 nM

Compound: Cc1ccc2[nH]c(=O)c(-c3cn(-c4ccc(C(=O)N5CCN(C)CC5)cc4)nn3)cc2c1 [A168, 6-methyl-3-{1-[4-(4-methyl-piperazine-1-carbonyl)-phenyl]-1H-[1,2,3]triazol-4-yl}-1H-quinolin-2-one]
- IC50 (PDGFRalpha(V561D)): 100 nM
- IC50 (c-Kit(V654A)): 37 nM

Compound: CN1CCN(C(=O)Cc2ccc(-n3cc(-c4cc5cc(F)c(F)cc5[nH]c4=O)nn3)cc2)CC1 [A169, 6,7-difluoro-3-(1-{4-[2-(4-methyl-piperazin-1-yl)-2-oxo-ethyl]-phenyl}-1H-[1,2,3]triazol-4-yl)-1H-quinolin-2-one]
- IC50 (PDGFRalpha(V561D)): 430 nM
- IC50 (c-Kit(V654A)): 14 nM

Compound: CN1CCN(C(=O)c2ccc(-n3cc(-c4cc5ccc(C(F)(F)F)cc5[nH]c4=O)nn3)cc2)CC1 [A170, 3-{1-[4-(4-methyl-piperazine-1-carbonyl)-phenyl]-1H-[1,2,3]triazol-4-yl}-7-trifluoromethyl-1H-quinolin-2-one]
- IC50 (PDGFRalpha(V561D)): 12000 nM
- IC50 (c-Kit(V654A)): 1800 nM

Compound: CN(C)C1CCN(C(=O)c2ccc(-n3cc(-c4cc5cc(F)c(F)cc5[nH]c4=O)nn3)cc2)CC1 [A171, 3-{1-[4-(4-dimethylamino-piperidine-1-carbonyl)-phenyl]-1H-[1,2,3]triazol-4-yl}-6,7-difluoro-1H-quinolin-2-one]
- IC50 (PDGFRalpha(V561D)): 190 nM
- IC50 (c-Kit(V654A)): 17 nM

Compound: CN(C)C1CCN(C(=O)c2ccc(-n3cc(-c4cc5cc(F)ccc5[nH]c4=O)nn3)cc2)CC1 [A172, 3-{1-[4-(4-dimethylamino-piperidine-1-carbonyl)-phenyl]-1H-[1,2,3]triazol-4-yl}-6-fluoro-1H-quinolin-2-one]
- IC50 (PDGFRalpha(V561D)): 25 nM
- IC50 (c-Kit(V654A)): 6.3 nM

Compound: COCCN1CCN(C(=O)c2ccc(-n3cc(-c4cc5cc(F)cnc5[nH]c4=O)nn3)cc2)CC1 [A175, 6-Fluoro-3-(1-{4-[4-(2-methoxy-ethyl)-piperazine-1-carbonyl]-phenyl}-1H-[1,2,3]triazol-4-yl)-1H-[1,8]naphthyridin-2-one]
- IC50 (PDGFRalpha(V561D)): 6 nM
- IC50 (c-Kit(V654A)): 92 nM

Compound: CN1CCN(CCOc2ccc(-n3cc(-c4cc5cc(F)ccc5[nH]c4=O)nn3)cc2)CC1 [A176, 6-fluoro-3-(1-{4-[2-(4-methyl-piperazin-1-yl)-ethoxy]-phenyl}-1H-[1,2,3]triazol-4-yl)-1H-quinolin-2-one]
- IC50 (PDGFRalpha(V561D)): 1.6 nM
- IC50 (c-Kit(V654A)): 6.7 nM

Compound: N#Cc1ccc2cc(-c3cn(-c4ccc(C(=O)N5CCOCC5)cc4)nn3)c(=O)[nH]c2c1 [A177, 3-{1-[4-(morpholine-4-carbonyl)-phenyl]-1H-[1,2,3]triazol-4-yl}-2-oxo-1,2-dihydro-quinoline-7-carbonitrile]
- IC50 (PDGFRalpha(V561D)): 57 nM
- IC50 (c-Kit(V654A)): 170 nM

Compound: CN1CCN(C(=O)Cn2ccc3cc(-n4cc(-c5cc6cc(F)ccc6[nH]c5=O)nn4)ccc32)CC1 [A178, 6-fluoro-3-(1-{1-[2-(4-methyl-piperazin-1-yl)-2-oxo-ethyl]-1H-indol-5-yl}-1H-[1,2,3]triazol-4-yl)-1H-quinolin-2-one]
- IC50 (PDGFRalpha(V561D)): 1.3 nM
- IC50 (c-Kit(V654A)): 3.9 nM

Compound: CC(=O)O[C@@H]1CCN(C(=O)c2ccc(-n3cc(-c4cc5cc(F)ccc5[nH]c4=O)nn3)cc2)C1 [A179, acetic acid (R)-1-{4-[4-(6-fluoro-2-oxo-1,2-dihydro-quinolin-3-yl)-[1,2,3]triazol-1-yl]-benzoyl}-pyrrolidin-3-yl ester]
- IC50 (PDGFRalpha(V561D)): 1.6 nM
- IC50 (c-Kit(V654A)): 14 nM

Compound: CC(=O)O[C@H]1CCN(C(=O)c2ccc(-n3cc(-c4cc5cc(F)ccc5[nH]c4=O)nn3)cc2)C1 [A180, acetic acid (S)-1-{4-[4-(6-fluoro-2-oxo-1,2-dihydro-quinolin-3-yl)-[1,2,3]triazol-1-yl]-benzoyl}-pyrrolidin-3-yl ester]
- IC50 (PDGFRalpha(V561D)): 0.5 nM
- IC50 (c-Kit(V654A)): 9.5 nM

Compound: O=C(c1ccc(-n2cc(-c3cc4cc(F)ccc4[nH]c3=O)nn2)cc1)N1CC[C@@H](O)C1 [A181, 6-fluoro-3-{1-[4-((R)-3-hydroxy-pyrrolidine-1-carbonyl)-phenyl]-1H-[1,2,3]triazol-4-yl}-1H-quinolin-2-one]
- IC50 (PDGFRalpha(V561D)): 0.71 nM
- IC50 (c-Kit(V654A)): 8.5 nM

Compound: O=C(c1ccc(-n2cc(-c3cc4cc(F)ccc4[nH]c3=O)nn2)cc1)N1CC[C@H](O)C1 [A182, 6-fluoro-3-{1-[4-((S)-3-hydroxy-pyrrolidine-1-carbonyl)-phenyl]-1H-[1,2,3]triazol-4-yl}-1H-quinolin-2-one]
- IC50 (PDGFRalpha(V561D)): 1.2 nM
- IC50 (c-Kit(V654A)): 13 nM

Compound: O=C(c1ccc(-n2cc(-c3cc4cc(F)ccc4[nH]c3=O)nn2)cc1)N1CCC(O)CC1 [A183, 6-fluoro-3-{1-[4-(4-hydroxy-piperidine-1-carbonyl)-phenyl]-1H-[1,2,3]triazol-4-yl}-1H-quinolin-2-one]
- IC50 (PDGFRalpha(V561D)): 26 nM
- IC50 (c-Kit(V654A)): 7.5 nM

Compound: O=C(c1ccc(-n2cc(-c3cc4cc(F)ccc4[nH]c3=O)nn2)cc1)N1CCCC(O)C1 (stereo not shown) [A184, 6-fluoro-3-{1-[4-(3-hydroxy-piperidine-1-carbonyl)-phenyl]-1H-[1,2,3]triazol-4-yl}-1H-quinolin-2-one]
- IC50 (PDGFRalpha(V561D)): 11 nM
- IC50 (c-Kit(V654A)): 18 nM

Compound: CCN(CC)CCNC(=O)c1ccc(-n2cc(-c3cc4cc(F)c(F)cc4[nH]c3=O)nn2)cc1 [A187, N-(2-diethylamino-ethyl)-4-[4-(6,7-difluoro-2-oxo-1,2-dihydro-quinolin-3-yl)-[1,2,3]triazol-1-yl]-benzamide]
- IC50 (PDGFRalpha(V561D)): 76 nM
- IC50 (c-Kit(V654A)): 36 nM

Compound: CCN(CC)CCNC(=O)c1ccc(-n2cc(-c3cc4cc(F)c(Cl)cc4[nH]c3=O)nn2)cc1 [A188, 4-[4-(7-chloro-6-fluoro-2-oxo-1,2-dihydro-quinolin-3-yl)-[1,2,3]triazol-1-yl]-N-(2-diethylamino-ethyl)-benzamide]
- IC50 (PDGFRalpha(V561D)): 1600 nM
- IC50 (c-Kit(V654A)): 26 nM

Compound: CCN(CC)CCN1CCN(C(=O)c2ccc(-n3cc(-c4cc5cc(F)c(F)cc5[nH]c4=O)nn3)cc2)CC1 [A189, 3-(1-{4-[4-(2-diethylamino-ethyl)-piperazine-1-carbonyl]-phenyl}-1H-[1,2,3]triazol-4-yl)-6,7-difluoro-1H-quinolin-2-one]
- IC50 (PDGFRalpha(V561D)): 430 nM
- IC50 (c-Kit(V654A)): 110 nM

Compound: COC1CCN(C(=O)c2ccc(-n3cc(-c4cc5cc(F)ccc5[nH]c4=O)nn3)cc2)CC1 [A190, 6-fluoro-3-{1-[4-(4-methoxy-piperidine-1-carbonyl)-phenyl]-1H-[1,2,3]triazol-4-yl}-1H-quinolin-2-one]
- IC50 (PDGFRalpha(V561D)): 64 nM
- IC50 (c-Kit(V654A)): 9.7 nM

Compound: COC1CCN(C(=O)c2ccc(-n3cc(-c4cc5cc(F)c(F)cc5[nH]c4=O)nn3)cc2)CC1 [A191, 6,7-difluoro-3-{1-[4-(4-methoxy-piperidine-1-carbonyl)-phenyl]-1H-[1,2,3]triazol-4-yl}-1H-quinolin-2-one]
- IC50 (PDGFRalpha(V561D)): 240 nM
- IC50 (c-Kit(V654A)): 15 nM

Compound: CO[C@@H]1CCCN(C(=O)c2ccc(-n3cc(-c4cc5cc(F)c(F)cc5[nH]c4=O)nn3)cc2)C1 [A192, 6,7-difluoro-3-{1-[4-((R)-3-methoxy-piperidine-1-carbonyl)-phenyl]-1H-[1,2,3]triazol-4-yl}-1H-quinolin-2-one]
- IC50 (PDGFRalpha(V561D)): 200 nM
- IC50 (c-Kit(V654A)): 230 nM

Compound: CO[C@H]1CCCN(C(=O)c2ccc(-n3cc(-c4cc5cc(F)c(F)cc5[nH]c4=O)nn3)cc2)C1 [A193, 6,7-difluoro-3-{1-[4-((S)-3-methoxy-piperidine-1-carbonyl)-phenyl]-1H-[1,2,3]triazol-4-yl}-1H-quinolin-2-one]
- IC50 (PDGFRalpha(V561D)): 200 nM
- IC50 (c-Kit(V654A)): 230 nM

Compound: CO[C@@H]1CCCN(C(=O)c2ccc(-n3cc(-c4cc5cc(F)ccc5[nH]c4=O)nn3)cc2)C1 [A194, 6-fluoro-3-{1-[4-((R)-3-methoxy-piperidine-1-carbonyl)-phenyl]-1H-[1,2,3]triazol-4-yl}-1H-quinolin-2-one]
- IC50 (PDGFRalpha(V561D)): 91 nM
- IC50 (c-Kit(V654A)): 49 nM

Compound: CO[C@H]1CCCN(C(=O)c2ccc(-n3cc(-c4cc5cc(F)ccc5[nH]c4=O)nn3)cc2)C1 [A195, 6-fluoro-3-{1-[4-((S)-3-methoxy-piperidine-1-carbonyl)-phenyl]-1H-[1,2,3]triazol-4-yl}-1H-quinolin-2-one]
- IC50 (PDGFRalpha(V561D)): 93 nM
- IC50 (c-Kit(V654A)): 68 nM

From patent publication US11939314B2, “Quinolin-2-one derivatives” (MERCK PATENT GMBH, priority 2016, dated 2024)
